Results on 22 compounds are retold here after patent US8486933B2, “Pyrimidine inhibitors of kinase activity” (AbbVie Inc., priority 2009, dated 2013).

T1 sequence (P08069 954-1367): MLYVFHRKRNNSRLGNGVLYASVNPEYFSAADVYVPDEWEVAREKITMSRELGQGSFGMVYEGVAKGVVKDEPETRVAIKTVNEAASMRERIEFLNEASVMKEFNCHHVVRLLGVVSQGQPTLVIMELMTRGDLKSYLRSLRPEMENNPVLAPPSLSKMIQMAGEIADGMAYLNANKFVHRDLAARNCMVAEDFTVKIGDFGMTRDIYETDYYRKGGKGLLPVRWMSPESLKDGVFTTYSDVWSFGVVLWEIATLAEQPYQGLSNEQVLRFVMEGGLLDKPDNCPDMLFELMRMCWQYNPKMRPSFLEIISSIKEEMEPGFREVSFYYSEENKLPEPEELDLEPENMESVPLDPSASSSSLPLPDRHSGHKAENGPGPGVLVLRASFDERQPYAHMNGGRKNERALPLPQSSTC

This assay concerns the target T1, human IGF-1R (Homo sapiens, UniProt P08069).
T1 construct: human IGF-1R, amino acids 954-1367 expressed by baculovirus in Sf21 cells; GST (C); purchased Cell Signaling Technology; host or cells: baculovirus in Sf21 cells
Description: IGF-1R homogenous time-resolved fluorescence (HTRF) in vitro kinase assay. The conditions noted are these: recombinant GST-tagged human IGF-1R aa 954-1367; ATP 50 μM; 60 minutes at room temperature. The class given is biochemical. On the procedure: IGF-1R kinase activity was assayed by a homogenous time-resolved fluorescence (HTRF) in vitro kinase assay (Mathis, G., HTRF(R) Technology. J Biomol Screen, 1999. 4(6): p. 309-314). Specifically, 10 μL C-terminal GST-tagged, recombinant, human IGF-1R, amino acids 954-1367 expressed by baculovirus in Sf21 cells (Cell Singaling Technology) was mixed with 10 μL inhibitor (various concentrations, 2% final DMSO) and 10 μL of ATP (50 μM final concentration) in reaction buffer (50 mM HEPES, pH 7.5, 10 mM MgCl2, 2 mM MnCl2, 0.1% BSA and 1 mM DTT, 40 μL final volume). The reaction was initiated by addition of 10 μL of biotinylated peptide substrate (Biotin-Ahx-[…], 0.5 μM final concentration) in a black 384-well plate (Packard). […] The quenched reaction was allowed to stand at room temperature for 1 hour and then read in a time-resolved fluorescence detector (Envision, Perkin Elmer) at 615 nm and 665 nm simultaneously. The ratio between the signal of 615 nm and 665 nm was used in the calculation of the IC50.
A general note: TR-FRET usually uses a lanthanide donor and a delayed reading to cut background.
With `COc1cc(N2CCC(N(C)C)CC2)ccc1Nc1ncc(Br)c(Nc2cc3cn[nH]c3cc2Cl)n1` [Example 20, 5-bromo-N^4-(6-chloro-1H-indazol-5-yl)-N^2-{4-[4-(dimethylamino)piperidin-1-yl]-2-methoxyphenyl}pyrimidine-2,4-diamine], the IC50 fell in the range of 10 to 50 nM.

Take `COc1cc(N2CCC(N(C)C)CC2)ccc1Nc1ncc(Cl)c(Nc2ccc3c(cnn3C)c2)n1` [Example 18, 5-chloro-N^2-{4-[4-(dimethylamino)piperidin-1-yl]-2-methoxyphenyl}-N^4-(1-methyl-1H-indazol-5-yl)pyrimidine-2,4-diamine]: the half-maximal inhibitory concentration (IC50) lay in the range of 101 to 500 nM. With `CNC(=O)c1cc2c(cnn2C)cc1Nc1nc(Nc2ccc(N3CCOCC3)cc2OC)ncc1Br` [Example 41, 5-({5-bromo-2-[(2-methoxy-4-morpholin-4-ylphenyl)amino]pyrimidin-4-yl}amino)-N,1-dimethyl-1H-indazole-6-carboxamide] the figure was 10 to 50 nM; with `COc1cc(N2CCOCC2)ccc1Nc1ncc(Br)c(Nc2cc3cnn(C)c3cc2S(C)(=O)=O)n1` [Example 40, 5-bromo-N^2-(2-methoxy-4-morpholin-4-ylphenyl)-N^4-[1-methyl-6-(methylsulfonyl)-1H-indazol-5-yl]pyrimidine-2,4-diamine], 10 to 50 nM. The same measure for `COc1cc(N2CCC(N(C)C)CC2)ccc1Nc1ncc(Br)c(Nc2cc3cnn(C)c3cc2S(C)(=O)=O)n1` [Example 34, 5-bromo-N^2-{4-[4-(dimethylamino)piperidin-1-yl]-2-methoxyphenyl}-N^4-[1-methyl-6-(methylsulfonyl)-1H-indazol-5-yl]pyrimidine-2,4-diamine]: 10 to 50 nM; for `CCN1CCN(c2ccc(Nc3ncc(Br)c(Nc4ccc5scnc5c4)n3)cc2)CC1` [Example 14, N^4-1,3-benzothiazol-5-yl-5-bromo-N^2-[4-(4-ethylpiperazin-1-yl)phenyl]pyrimidine-2,4-diamine]: 101 to 500 nM; for `COc1cc(N2CCC(N3CCN(C)CC3)CC2)ccc1Nc1ncc(Br)c(Nc2ccc3nc(-c4ccccc4)ccc3c2)n1` [Example 47, 5-bromo-N^2-{2-methoxy-4-[4-(4-methylpiperazin-1-yl)piperidin-1-yl]phenyl}-N^4-(2-phenylquinolin-6-yl)pyrimidine-2,4-diamine]: greater than 500 nM. The same measure for `CCN1CCN(c2ccc(Nc3ncc(Br)c(Nc4ccc5[nH]c(C(F)(F)F)nc5c4)n3)cc2)CC1` [Example 1, 5-bromo-N^2-[4-(4-ethylpiperazin-1-yl)phenyl]-N^4-[2-(trifluoromethyl)-1H-benzimidazol-5-yl]pyrimidine-2,4-diamine]: greater than 500 nM.

In the case of `COc1cc(N2CCC(N(C)C)CC2)ccc1Nc1ncc(Cl)c(Nc2ccc3oc(C)nc3c2)n1` [Example 25, 5-chloro-N^2-{4-[4-(dimethylamino)piperidin-1-yl]-2-methoxyphenyl}-N^4-(2-methyl-1,3-benzoxazol-5-yl)pyrimidine-2,4-diamine], the IC50 was greater than 500 nM. The same measure for `CCN1CCN(c2ccc(Nc3ncc(Br)c(Nc4cccc5oc(C)nc45)n3)cc2)CC1` [Example 15, 5-bromo-N^2-[4-(4-ethylpiperazin-1-yl)phenyl]-N^4-(2-methyl-1,3-benzoxazol-4-yl)pyrimidine-2,4-diamine]: 101 to 500 nM. With `COc1cc(N2CCN(C(C)C)CC2)ccc1Nc1ncc(Br)c(Nc2cc3cnn(C)c3cc2S(C)(=O)=O)n1` [Example 43, 5-bromo-N^2-[4-(4-isopropylpiperazin-1-yl)-2-methoxyphenyl]-N^4-[1-methyl-6-(methylsulfonyl)-1H-indazol-5-yl]pyrimidine-2,4-diamine] the figure was 10 to 50 nM. With `COc1cc(N2CCC(N(C)C)CC2)ccc1Nc1ncc(Cl)c(Nc2cccc3[nH]c(C)nc23)n1` [Example 17, 5-chloro-N^2-{4-[4-(dimethylamino)piperidin-1-yl]-2-methoxyphenyl}-N^4-(2-methyl-1H-benzimidazol-4-yl)pyrimidine-2,4-diamine] the figure was greater than 500 nM; with `COc1cc(N2CCC(N(C)C)CC2)ccc1Nc1ncc(Br)c(Nc2ccc3c(cnn3C)c2)n1` [Example 19, 5-bromo-N^2-{4-[4-(dimethylamino)piperidin-1-yl]-2-methoxyphenyl}-N^4-(1-methyl-1H-indazol-5-yl)pyrimidine-2,4-diamine], 51 to 100 nM. With `CNC(=O)c1cc2c(cnn2C)cc1Nc1nc(Nc2ccc(N3CCC(N(C)C)CC3)cc2)ncc1Br` [Example 38, 5-{[5-bromo-2-({4-[4-(dimethylamino)piperidin-1-yl]phenyl}amino)pyrimidin-4-yl]amino}-N,1-dimethyl-1H-indazole-6-carboxamide], the IC50 fell in the range of 10 to 50 nM. With `CCS(=O)(=O)c1cc2c(cnn2C)cc1Nc1nc(Nc2ccc(N3CCC(N4CCN(C)CC4)CC3)cc2OC)ncc1Br` [Example 46, 5-bromo-N^4-[6-(ethylsulfonyl)-1-methyl-1H-indazol-5-yl]-N^2-{2-methoxy-4-[4-(4-methylpiperazin-1-yl)piperidin-1-yl]phenyl}pyrimidine-2,4-diamine] the figure was less than 10 nM. With `COc1cc(N2CCC(N3CCN(C)CC3)CC2)ccc1Nc1ncc(Br)c(Nc2ccc3ncccc3c2)n1` [Example 49, 5-bromo-N^2-{2-methoxy-4-[4-(4-methylpiperazin-1-yl)piperidin-1-yl]phenyl}-N^4-quinolin-6-ylpyrimidine-2,4-diamine] the figure was 10 to 50 nM.

Turning to `CCN1CCN(c2ccc(Nc3ncc(Br)c(Nc4cccc5[nH]c(C)nc45)n3)cc2)CC1` [Example 6, 5-bromo-N^2-[4-(4-ethylpiperazin-1-yl)phenyl]-N^4-(2-methyl-1H-benzimidazol-4-yl)pyrimidine-2,4-diamine], the IC50 is greater than 500 nM. The same measure for `COc1cc(N2CCC(N3CCN(C)CC3)CC2)ccc1Nc1ncc(Br)c(Nc2ccc3[nH]ncc3c2)n1` [Example 13, 5-bromo-N^4-1H-indazol-5-yl-N^2-{2-methoxy-4-[4-(4-methylpiperazin-1-yl)piperidin-1-yl]phenyl}pyrimidine-2,4-diamine]: 10 to 50 nM; for `COc1cc(N2CCC(N(C)C)CC2)ccc1Nc1ncc(Br)c(Nc2cc3cnn(C)c3cc2S(=O)(=O)C(C)C)n1` [Example 27, 5-bromo-N^2-{4-[4-(dimethylamino)piperidin-1-yl]-2-methoxyphenyl}-N^4-[6-(isopropylsulfonyl)-1-methyl-1H-indazol-5-yl]pyrimidine-2,4-diamine]: less than 10 nM; for `CCN1CCN(c2ccc(Nc3ncc(Br)c(Nc4ccc5[nH]c(Cc6ccccc6)nc5c4)n3)cc2)CC1` [Example 2, N^4-(2-benzyl-1H-benzimidazol-5-yl)-5-bromo-N^2-[4-(4-ethylpiperazin-1-yl)phenyl]pyrimidine-2,4-diamine]: greater than 500 nM. On to `CCS(=O)(=O)c1cc2c(cnn2C)cc1Nc1nc(Nc2ccc(N3CCS(=O)(=O)CC3)cc2)ncc1Br` [Example 45, 5-bromo-N^2-[4-(1,1-dioxidothiomorpholin-4-yl)phenyl]-N^4-[6-(ethylsulfonyl)-1-methyl-1H-indazol-5-yl]pyrimidine-2,4-diamine], for which the IC50 is 51 to 100 nM.

Regarding `COc1cc(N2CCC(N3CCN(C)CC3)CC2)ccc1Nc1ncc(Br)c(Oc2ccc3cccnc3c2)n1` [Example 51, 5-bromo-N-{2-methoxy-4-[4-(4-methylpiperazin-1-yl)piperidin-1-yl]phenyl}-4-(quinolin-7-yloxy)pyrimidin-2-amine], the half-inhibitory concentration (IC50) fell in the range of 10 to 50 nM.

By IC50 is commonly meant the concentration needed to halve the response being measured.
